{"source": "patent US20260258016A1", "about": "“SUBSTITUTED PYRIDAZINE-3-CARBOXAMIDE COMPOUND SERVING AS TYK2 INHIBITOR” (Guangzhou Fermion Technology Co., Ltd., priority 2022, published 2026)", "key": {"[1]": {"system": "IL-2-induced STAT5 phosphorylation (JAK1/3) in CD3+ cells of human PBMC", "test": "IL-2-induced STAT5 phosphorylation (JAK1/3) in CD3+ cell subpopulations in human PBMC, flow cytometry", "assay_type": "cell-based", "conditions": "IL-2 stimulation 20 min, read-out: IL-2-induced CD3+ pSTAT5 (JAK1/3) in hPBMC (IC50)", "method": "Purpose: The purpose of this test case was to test the inhibitory effect of the compound on IL-2-induced STAT5 phosphorylation using protein phosphorylation flow cytometric analysis technology.\nHuman PBMC cells were pre-incubated with the compounds, STAT5 was induced to phosphorylate under appropriate stimulation conditions, and corresponding cell subpopulations and targets were stained. Flow cytometry was used to read cell data and analyze the strength of phosphorylated antibody signals under different compound concentrations. PBMCs were resuspended and dispensed into a 96-well plate, 62.5 μL/well. 3.5 μL of 20× compound working solutions were added and incubated at 37° C. for 30 minutes. 5 μL of PE mouse anti-human CD3 (BD) was added and incubated for 30 min at 37° C. in the dark. 4 μL of 20×IL-2 (R&D) was added to each well and incubated at 37° C. in the dark for 20 minutes. All cells in the 96-well plate were transferred to a deep-well plate, 400 μL of a fixation working solution (Biolegend) was added to each well, and incubated at room temperature in the dark for 20 minutes. The cells were washed twice with PBS, and 400 μL of Perm Buffer III (BD) was added and incubated at 4° C. in the dark for 40 minutes. The cells were washed twice with PBS, and 100 μL of a STAT5 pY694 antibody working solution (BD) was added and incubated at room temperature for 40 minutes. After washing once with PBS, the cells were resuspended in 200 μL of a staining buffer and transferred to a sample plate. The antibody fluorescence intensity was analyzed using FlowJo software, and the IC50 of the compound was calculated using XL-Fit software."}, "JAK3 JH1": {"biological_target": "T1, JAK3 JH1 (Homo sapiens, UniProt P52333)", "T1 construct": "5 μL/well of 2×JAK1 JH1/JAK2 JH1/JAK3 JH1/TYK2 JH1 kinase solutions", "T1 sequence (P52333 822-1111 limits assumed)": "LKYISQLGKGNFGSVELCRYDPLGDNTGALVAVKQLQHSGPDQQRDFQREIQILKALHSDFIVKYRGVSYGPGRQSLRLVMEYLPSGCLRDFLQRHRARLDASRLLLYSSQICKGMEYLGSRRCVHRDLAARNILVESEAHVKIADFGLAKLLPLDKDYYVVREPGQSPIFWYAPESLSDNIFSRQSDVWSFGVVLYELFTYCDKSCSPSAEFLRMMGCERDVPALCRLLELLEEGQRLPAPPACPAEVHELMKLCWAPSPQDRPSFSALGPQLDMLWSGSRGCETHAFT", "test": "JAK3 JH1 kinase inhibition (HTRF)", "assay_type": "biochemical", "conditions": "read-out: Inhibition on kinase activity (IC50, μM) JAK3 JHI", "method": "(§1) After the completion of incubation, 5 μL of a mixed solution containing a 2×TK-SUB-biotin substrate and ATP was added to each well, uniformly mixed by centrifugation, and incubated at 25° C. for 45 minutes (JAK1/JAK2) or 60 minutes (JAK3/TYK2). After completion of incubation, 10 μL of an assay mixture (TK Antibody-EU and Streptavidin-XL mixture) was added to each well, uniformly mixed by centrifugation, and incubated at 25° C. for 60 minutes (JAK1/JAK2) or 120 minutes (JAK3/TYK2). After completion of incubation, the solutions were transferred to a 4° C. freezer for incubation overnight, and fluorescence values were read on an Envision 2104 Multilabel Reader, and the IC50 of the compound was calculated using XL-Fit software."}, "TYK2 JH1": {"biological_target": "T2, TYK2 JH1 (Homo sapiens, UniProt P29597)", "T2 construct": "5 μL/well of 2×JAK1 JH1/JAK2 JH1/JAK3 JH1/TYK2 JH1 kinase solutions", "T2 sequence (P29597 897-1176 limits assumed)": "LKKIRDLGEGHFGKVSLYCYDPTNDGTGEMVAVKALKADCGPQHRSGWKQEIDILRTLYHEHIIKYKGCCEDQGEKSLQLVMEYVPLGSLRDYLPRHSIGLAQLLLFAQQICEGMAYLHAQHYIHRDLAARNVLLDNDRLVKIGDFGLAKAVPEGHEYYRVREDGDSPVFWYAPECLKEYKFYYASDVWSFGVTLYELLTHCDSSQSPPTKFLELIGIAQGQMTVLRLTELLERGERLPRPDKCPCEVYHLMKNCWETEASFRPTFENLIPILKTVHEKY", "test": "TYK2 JH1 kinase inhibition (HTRF)", "assay_type": "biochemical", "conditions": "read-out: Inhibition on kinase activity (IC50, μM) TYK2 JHI", "method": "as §1"}, "JAK1 JH1": {"biological_target": "T3, JAK1 JH1 (Homo sapiens, UniProt P23458)", "T3 construct": "5 μL/well of 2×JAK1 JH1/JAK2 JH1/JAK3 JH1/TYK2 JH1 kinase solutions", "T3 sequence (P23458 875-1153 limits assumed)": "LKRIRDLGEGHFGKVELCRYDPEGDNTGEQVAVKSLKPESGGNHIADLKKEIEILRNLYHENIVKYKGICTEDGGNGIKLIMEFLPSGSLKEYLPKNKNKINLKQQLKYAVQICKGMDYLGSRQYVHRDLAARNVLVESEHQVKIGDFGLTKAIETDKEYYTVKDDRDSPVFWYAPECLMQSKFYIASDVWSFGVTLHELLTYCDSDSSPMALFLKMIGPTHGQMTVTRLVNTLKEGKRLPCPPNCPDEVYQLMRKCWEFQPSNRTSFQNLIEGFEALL", "test": "JAK1 JH1 kinase inhibition (HTRF)", "assay_type": "biochemical", "conditions": "read-out: Inhibition on kinase activity (IC50, μM) JAKI JHI", "procedure": "Purpose: The purpose of this test example was to examine the inhibitory effect of the compound on the kinase activity of JAK1 JH1/JAK2 JH1/JAK3 JH1/TYK2 JH1 using homogeneous time-resolved fluorescence resonance energy transfer (HTRF) technology.\n100 nL/well of compound working solutions were transferred to a 384-well assay plate using an automated micropipetting system, 5 μL/well of 2×JAK1 JH1/JAK2 JH1/JAK3 JH1/TYK2 JH1 kinase solutions or assay buffer were added, uniformly mixed by centrifugation, and incubated at the room temperature 25° C. for 15 minutes. After the completion of incubation, 5 μL of a mixed solution containing a 2×TK-SUB-biotin substrate and ATP was added to each well, uniformly mixed by centrifugation, and incubated at 25° C. for 45 minutes (JAK1/JAK2) or 60 minutes (JAK3/TYK2). After completion of incubation, 10 μL of an assay mixture (TK Antibody-EU and Streptavidin-XL mixture) was added to each well, uniformly mixed by centrifugation, and incubated at 25° C. for 60 minutes (JAK1/JAK2) or 120 minutes (JAK3/TYK2)."}, "TYK2 JH2 pseudokinase": {"biological_target": "TYK2 JH2 pseudokinase (Homo sapiens, UniProt P29597)", "sequence (P29597 589-875 limits assumed)": "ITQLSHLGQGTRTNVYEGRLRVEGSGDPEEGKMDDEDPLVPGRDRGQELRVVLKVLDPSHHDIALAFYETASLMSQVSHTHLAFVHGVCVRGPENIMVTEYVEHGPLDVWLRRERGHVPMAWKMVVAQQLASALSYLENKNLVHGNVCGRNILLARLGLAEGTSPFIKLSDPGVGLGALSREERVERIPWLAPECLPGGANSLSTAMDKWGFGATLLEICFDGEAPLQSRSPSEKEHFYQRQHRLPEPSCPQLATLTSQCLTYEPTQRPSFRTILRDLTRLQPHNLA", "test": "In vitro TYK2 JH2 enzyme binding assay (TR-FRET)", "procedure": "Purpose: The purpose of this test example was to use a fluorescence resonance energy transfer (TR-FRET) method to test the binding effect of the compound on a TYK2 JH2 pseudokinase, and then evaluate the affinity of the compound for TYK2 JH2.\nDMSO-dissolved compounds were used to prepare 10 mM stock solutions, then 200× compounds having different gradient concentrations were prepared in a compound dilution plate, and transferred to an Echo plate. 75 nL of the compounds were transferred from the Echo plate to a 384-well assay plate using an Echo instrument, and 5 μL of 3×TYK2 JH2 pseudokinase (Bioduro), 5 μL of 3×Tb antibody (Cisbio) and 5 μL of 3×TRACER (Bioduro) were added to the 384-well assay plate, centrifuged for 30 seconds, and incubated at room temperature for 60 minutes."}, "JAK2 JH1": {"biological_target": "T4, JAK2 JH1 (Homo sapiens, UniProt O60674)", "T4 construct": "5 μL/well of 2×JAK1 JH1/JAK2 JH1/JAK3 JH1/TYK2 JH1 kinase solutions", "T4 sequence (O60674 849-1124 limits assumed)": "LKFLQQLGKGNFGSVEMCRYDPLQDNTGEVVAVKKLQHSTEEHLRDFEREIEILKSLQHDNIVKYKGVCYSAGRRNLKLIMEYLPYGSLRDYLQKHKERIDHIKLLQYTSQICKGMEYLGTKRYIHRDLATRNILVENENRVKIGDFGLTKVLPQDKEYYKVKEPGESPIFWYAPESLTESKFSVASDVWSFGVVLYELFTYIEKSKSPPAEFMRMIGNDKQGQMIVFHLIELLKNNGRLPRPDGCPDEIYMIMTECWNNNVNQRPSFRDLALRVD", "test": "JAK2 JH1 kinase inhibition (HTRF)", "assay_type": "biochemical", "conditions": "read-out: Inhibition on kinase activity (IC50, μM) JAK2 JHI", "method": "as §1"}}, "note": "Like-named read-outs stand apart in the source and are kept apart here.", "data": [{"compound": "CCONC(=O)c1nnc(NC(=O)C2CC2)cc1Nc1cccc(-c2nc[nH]n2)c1OC", "note": "[Compound 1, 6-(Cyclopropylcarboxamido)-N-ethoxy-4-((2-methoxy-3-(1H-1,2,4-triazol-3-yl)phenyl)amino)pyridazine-3-carboxamide]", "values": [{"measurement": "IC50", "setting": "[1]; 20 min", "value": "> 30000", "unit": "nM"}, {"measurement": "IC50", "setting": "JAK3 JH1", "value": "> 10", "unit": "µM"}, {"measurement": "IC50", "setting": "TYK2 JH1", "value": "> 10", "unit": "µM"}, {"measurement": "IC50", "setting": "JAK1 JH1", "value": "> 10", "unit": "µM"}, {"measurement": "IC50", "setting": "TYK2 JH2 pseudokinase", "value": 0.21, "unit": "nM"}, {"measurement": "IC50", "setting": "JAK2 JH1", "value": "> 10", "unit": "µM"}]}, {"compound": "CCONC(=O)c1nnc(NC(=O)C2CC2)cc1Nc1cccc(-c2ncn(CCOC)n2)c1OC", "note": "[Compound 2, 6-(Cyclopropylcarboxamido)-N-ethoxy-4-((2-methoxy-3-(1-(2-methoxyethyl)-1H-1,2,4-triazol-3-yl)phenyl)amino)pyridazine-3-carboxamide]", "values": [{"measurement": "IC50", "setting": "[1]; 20 min", "value": "> 30000", "unit": "nM"}, {"measurement": "IC50", "setting": "JAK3 JH1", "value": "> 10", "unit": "µM"}, {"measurement": "IC50", "setting": "TYK2 JH1", "value": "> 10", "unit": "µM"}, {"measurement": "IC50", "setting": "JAK1 JH1", "value": "> 10", "unit": "µM"}, {"measurement": "IC50", "setting": "TYK2 JH2 pseudokinase", "value": 0.19, "unit": "nM"}, {"measurement": "IC50", "setting": "JAK2 JH1", "value": "> 10", "unit": "µM"}]}, {"compound": "CCONC(=O)c1nnc(NC(=O)C2CC2)cc1Nc1cccc(-c2ncn(CCF)n2)c1OC", "note": "[Compound 4, 6-(Cyclopropylcarboxamido)-N-ethoxy-4-((3-(1-(2-fluoroethyl)-1H-1,2,4-triazol-3-yl)-2-methoxyphenyl)amino)pyridazine-3-carboxamide]", "values": [{"measurement": "IC50", "setting": "TYK2 JH2 pseudokinase", "value": 0.18, "unit": "nM"}]}, {"compound": "CCONC(=O)c1nnc(NC(=O)C2CC2)cc1Nc1cccc(-c2ncn(CC(F)F)n2)c1OC", "note": "[Compound 5, 6-(Cyclopropylcarboxamido)-4-((3-(1-(2,2-difluoroethyl)-1H-1,2,4-triazol-3-yl)-2-methoxyphenyl)amino)-N-ethoxypyridazine-3-carboxamide]", "values": [{"measurement": "IC50", "setting": "TYK2 JH2 pseudokinase", "value": 0.26, "unit": "nM"}]}, {"compound": "CCONC(=O)c1nnc(NC(=O)C2CC2)cc1Nc1cccc(-c2ncn(CC(=O)O)n2)c1OC", "note": "[Compound 7, 2-(3-(3-((6-(Cyclopropylcarboxamido)-3-(ethoxycarbamoyl)pyridazine-4-yl)amino)-2-methoxyphenyl)-1H-1,2,4-triazol-1-yl)acetic acid]", "values": [{"measurement": "IC50", "setting": "TYK2 JH2 pseudokinase", "value": 0.29, "unit": "nM"}]}, {"compound": "CCONC(=O)c1nnc(NC(=O)C2CC2)cc1Nc1cccc(-c2ncn(CCC(=O)O)n2)c1OC", "note": "[Compound 8, 3-(3-(3-((6-(Cyclopropylcarboxamido)-3-(ethoxycarbamoyl)pyridazine-4-yl)amino)-2-methoxyphenyl)-1H-1,2,4-triazol-1-yl)propanoic acid]", "values": [{"measurement": "IC50", "setting": "TYK2 JH2 pseudokinase", "value": 0.29, "unit": "nM"}]}, {"compound": "CCONC(=O)c1nnc(NC(=O)C2CC2)cc1Nc1cccc(-c2ncn(CCCC(=O)O)n2)c1OC", "note": "[Compound 9, 4-(3-(3-((6-(Cyclopropylcarboxamido)-3-(ethoxycarbamoyl)pyridazine-4-yl)amino)-2-methoxyphenyl)-1H-1,2,4-triazol-1-yl)butanoic acid]", "values": [{"measurement": "IC50", "setting": "TYK2 JH2 pseudokinase", "value": 0.42, "unit": "nM"}]}, {"compound": "CCONC(=O)c1nnc(NC(=O)C2CC2)cc1Nc1cccc(-c2ncn(CCO)n2)c1OC", "note": "[Compound 10, 6-(Cyclopropylcarboxamide)-N-ethoxy-4-((3-(1-(2-hydroxyethyl)-1H-1,2,4-triazol-3-yl)-2-methoxyphenyl)amino)pyridazine-3-carboxamide]", "values": [{"measurement": "IC50", "setting": "TYK2 JH2 pseudokinase", "value": 0.28, "unit": "nM"}]}, {"compound": "BMS-986165 [reference compound]", "values": [{"measurement": "IC50", "setting": "[1]", "value": 409, "unit": "nM"}]}]}
